# Laboratory results published in US6812377B2, “Genetic engineering of syringyl-enriched lignin in plants” (Board of Control of Michigan Technological University, priority 2000, dated 2004).
# How the values were obtained:
# [1] = system: PtSAD recombinant protein; assay: SAD enzyme activity assay, single and mixed substrates (HPLC-MS); type: biochemical, Populus tremuloides; settings: mixture of coniferaldehyde and sinapaldehyde, pH 7.0
# Procedure: After 10 min at 30° C., the reaction was terminated and extracted with 0.5 ml ethyl acetate. The extraction was repeated 4 times and the combined ethyl acetate was evaporated and dissolved in the HPLC mobile phase for LC-MS identification and quantitation of the reaction products as we did before (Osakabe et al., 1999; Li et al. 2000). […] The SAD reactions with mixed substrates, sinapaldehyde and coniferyl aldehyde, were therefore conducted at the optimal pH 7.0 under above-described conditions. […] To characterize the enzyme pH optima, the substrate and recombinant PtCAD or PtSAD protein concentrations described above were used in sodium phosphate buffers, pH 5 to 8.5. All reactions were for 10 minutes at 30° C. An aliquot of 100 μL of reaction mixture was injected directly onto a Supelcosil LC-ABZ column (15 cm×4.6 mm×5 μm; Supelco, Bellefonte, Pa.) with automatic sample injection and separated isocratically with a Hewlett-Packard (HP) 1100 liquid chromatography system at 40° C. and a flow rate of 0.25 mL/min. […] The reaction products were identified and confirmed by comparing the ion fragmentation patterns of the product and the authentic standard in MS scanning mode at 70 V. The product quantity and Km, Vmax, kcat, and apparent inhibition constant (Ki) values (means±SE) were determined as described (Osakabe et al., 1999; Li et al., 2000). The results of the inhibition kinetics for both the CAD enzyme (i.e. Table 2) and the SAD enzyme (i.e., Table 3) using a variety of substrates are illustrated below.
# [2] = target: recombinant PtCAD protein (Populus tremuloides, UniProt Q9M632); assay: PtCAD enzyme activity with a mixture of coniferaldehyde and sinapaldehyde (HPLC-MS); type: biochemical
# Text: A guaiacyl pathway gene encoding coniferyl alcohol dehydrogenase (CAD, FIG. 1) from Populus tremuloides (GenBank #AF217957) was first cloned. This cDNA was designated as PtCAD (GenBank #AF217957). E. coli-expressed recombinant PtCAD protein was characterized for its catalytic activity with coniferaldehyde and sinapaldehyde. Because monolignol biosynthetic pathway intermediates are present together in lignifying tissues (Osakabe et al., 1999; Li et al. 2000), the PtCAD enzyme activity with a mixture of coniferaldehyde and sinapaldehyde was assayed. As shown in FIG. 5 (a) and (c), the reaction mixture was separated by HPLC after the enzyme reaction. […]
# An aliquot of 100 μL of reaction mixture was injected directly onto a Supelcosil LC-ABZ column (15 cm×4.6 mm×5 μm; Supelco, Bellefonte, Pa.) with automatic sample injection and separated isocratically with a Hewlett-Packard (HP) 1100 liquid chromatography system at 40° C. and a flow rate of 0.25 mL/min. […] The reaction products were identified and confirmed by comparing the ion fragmentation patterns of the product and the authentic standard in MS scanning mode at 70 V. The product quantity and Km, Vmax, kcat, and apparent inhibition constant (Ki) values (means±SE) were determined as described (Osakabe et al., 1999; Li et al., 2000). […]
# recombinant PtCAD protein, sequence (Q9M632 entry or part of it): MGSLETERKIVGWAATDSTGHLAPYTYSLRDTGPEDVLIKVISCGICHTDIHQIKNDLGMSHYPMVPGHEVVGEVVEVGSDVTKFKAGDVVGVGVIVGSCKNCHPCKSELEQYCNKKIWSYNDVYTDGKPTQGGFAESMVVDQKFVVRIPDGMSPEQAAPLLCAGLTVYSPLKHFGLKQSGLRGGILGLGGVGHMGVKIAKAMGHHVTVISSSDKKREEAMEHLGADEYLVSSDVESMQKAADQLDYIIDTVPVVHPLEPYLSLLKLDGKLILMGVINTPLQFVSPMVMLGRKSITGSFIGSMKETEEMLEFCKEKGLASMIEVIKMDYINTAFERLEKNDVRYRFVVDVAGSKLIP
compound,measurement,setting,value
COc1cc(/C=C/C=O)ccc1O [Coniferaldehyde],reaction of PtSAD with the substrate in a mixture,[1],would not react
same,reaction of PtCAD with the substrate in a mixture,[2],Only coniferyl alcohol was formed
